Test results reported in US20100104659A1, “BENZOPYRANOPYRAZOLES” (priority 2006, published 2010).

System: RKO human colon adenocarcinoma cells (RKOp27 subclone), proliferating
Test: Alamar Blue cell viability assay, RKO p27 uninduced (proliferating)
Conditions: RKOp27, 72 h, read-out: −log EC50 [mol/l] RKO p27 uninduced (proliferating), anti-proliferative/cytotoxic activity (converted)

SMILES	EC50
CNCCN(C)C(=O)N1N=C2c3cc(F)ccc3OC[C@@H]2[C@@H]1c1ccccc1 (racemic) [Example 23, (3RS,3aRS)-8-Fluoro-3-phenyl-3a,4-dihydro-3H-chromeno[4,3-c]pyrazole-2-carboxylic acid methyl-(2-methylamino-ethyl)-amide]	100 to 1000 nM
CN(CCO)CCCN(C)C(=O)N1N=C2c3cc(F)ccc3OC[C@H]2[C@H]1c1ccccc1 (racemic) [Example 50, (3SR,3aSR)-8-Fluoro-3-phenyl-3a,4-dihydro-3H-chromeno[4,3-c]pyrazole-2-carboxylic acid {3-[(2-hydroxy-ethyl)-methyl-amino]-propyl}-methyl-amide]	≤ 100 nM
CN(CCN1CCCCC1)C(=O)N1N=C2c3cc(F)ccc3OC[C@H]2[C@H]1c1ccccc1 (racemic) [Example 36, (3SR,3aSR)-8-Fluoro-3-phenyl-3a,4-dihydro-3H-chromeno[4,3-c]pyrazole-2-carboxylic acid methyl-(2-piperidin-1-yl-ethyl)-amide]	100 to 1000 nM
CC(=O)N1CCN(CCCN(C)C(=O)N2N=C3c4cc(F)ccc4OC[C@H]3[C@H]2c2ccccc2)CC1 (racemic) [Example 35, (3SR,3aSR)-8-Fluoro-3-phenyl-3a,4-dihydro-3H-chromeno[4,3-c]pyrazole-2-carboxylic acid [3-(4-acetyl-piperazin-1-yl)-propyl]-methyl-amide]	100 to 1000 nM
CN(C(=O)N1N=C2c3cc(F)ccc3OCC2C1c1ccccc1)C1CCCNC1 (mixture of isomers) [Example 25, (3RS,3aRS)-8-Fluoro-3-phenyl-3a,4-dihydro-3H-chromeno[4,3-c]pyrazole-2-carboxylic acid (R)-methyl-piperidin-3-yl-amide and (3RS,3aRS)-8-Fluoro-3-phenyl-3a,4-dihydro-3H-chromeno[4,3-c]pyrazole-2-carboxylic acid (S)-methyl-piperidin-3-yl-amide]	≤ 100 nM
CCN(CCCN(C)C(=O)N1N=C2c3cc(F)ccc3OC[C@H]2[C@H]1c1ccccc1)CCOC (racemic) [Example 56, (3SR,3aSR)-8-Fluoro-3-phenyl-3a,4-dihydro-3H-chromeno[4,3-c]pyrazole-2-carboxylic acid {3-[ethyl-(2-methoxy-ethyl)-amino]-propyl}-methyl-amide]	100 to 1000 nM
CCNCCN(C)C(=O)N1N=C2c3cc(F)ccc3OC[C@H]2[C@H]1c1ccccc1 (racemic) [Example 62, (3SR,3aSR)-8-Fluoro-3-phenyl-3a,4-dihydro-3H-chromeno[4,3-c]pyrazole-2-carboxylic acid (2-ethylamino-ethyl)-methyl-amide]	100 to 1000 nM
CCN(C)CCN(C)C(=O)N1N=C2c3cc(F)ccc3OC[C@H]2[C@H]1c1ccccc1 (racemic) [Example 53, (3SR,3aSR)-8-Fluoro-3-phenyl-3a,4-dihydro-3H-chromeno[4,3-c]pyrazole-2-carboxylic acid [2-(ethyl-methyl-amino)-ethyl]-methyl-amide]	≤ 100 nM
CCN(CCOC)CCN(C)C(=O)N1N=C2c3cc(F)ccc3OC[C@H]2[C@H]1c1ccccc1 (racemic) [Example 57, (3SR,3aSR)-8-Fluoro-3-phenyl-3a,4-dihydro-3H-chromeno[4,3-c]pyrazole-2-carboxylic acid {2-[ethyl-(2-methoxy-ethyl)-amino]-ethyl}-methyl-amide]	100 to 1000 nM
CN(C)C(=O)N1N=C2c3cc(F)ccc3OC[C@H]2[C@@H]1c1cccc(O)c1 (racemic) [Example 1, (3RS,3aSR)-8-Fluoro-3-(3-hydroxy-phenyl)-3a,4-dihydro-3H-chromeno[4,3-c]pyrazole-2-carboxylic acid dimethylamide]	100 to 1000 nM
CC(C)CNCCN(C)C(=O)N1N=C2c3cc(F)ccc3OC[C@H]2[C@H]1c1ccccc1 (racemic) [Example 41, (3SR,3aSR)-8-Fluoro-3-phenyl-3a,4-dihydro-3H-chromeno[4,3-c]pyrazole-2-carboxylic acid (2-isobutylamino-ethyl)-methyl-amide]	≤ 100 nM
CCN(CCO)CCN(C)C(=O)N1N=C2c3cc(F)ccc3OC[C@@H]2[C@@H]1c1ccccc1 (racemic) [Example 58, (3RS,3aRS)-8-Fluoro-3-phenyl-3a,4-dihydro-3H-chromeno[4,3-c]pyrazole-2-carboxylic acid {2-[ethyl-(2-hydroxy-ethyl)-amino]-ethyl}-methyl-amide]	≤ 100 nM
CN1CCC(N(C)C(=O)N2N=C3c4cc(F)ccc4OC[C@@H]3[C@@H]2c2cccc(O)c2)CC1 (single isomer, unassigned) [Example 3, (3RS,3aRS)-8-Fluoro-3-(3-hydroxy-phenyl)-3a,4-dihydro-3H-chromeno[4,3-c]pyrazole-2-carboxylic acid methyl-(1-methyl-piperidin-4-yl)-amide]	≤ 100 nM
CC1CCN(CCN(C)C(=O)N2N=C3c4cc(F)ccc4OC[C@H]3[C@H]2c2ccccc2)CC1 (racemic) [Example 65, (3SR,3aSR)-8-Fluoro-3-phenyl-3a,4-dihydro-3H-chromeno[4,3-c]pyrazole-2-carboxylic acid methyl-[2-(4-methyl-piperidin-1-yl)-ethyl]-amide]	100 to 1000 nM
CN(C)CCCN(C)C(=O)N1N=C2c3cc(F)ccc3OC[C@@H]2[C@@H]1c1ccccc1 (racemic) [Example 11, (3RS,3aRS)-8-Fluoro-3-phenyl-3a,4-dihydro-3H-chromeno[4,3-c]pyrazole-2-carboxylic acid (3-dimethylamino-propyl)-methyl-amide]	≤ 100 nM
COCCNCCN(C)C(=O)N1N=C2c3cc(F)ccc3OC[C@H]2[C@H]1c1ccccc1 (racemic) [Example 47, (3SR,3aSR)-8-Fluoro-3-phenyl-3a,4-dihydro-3H-chromeno[4,3-c]pyrazole-2-carboxylic acid [2-(2-methoxy-ethylamino)-ethyl]-methyl-amide]	100 to 1000 nM
CN(CCCN1CCCCC1)C(=O)N1N=C2c3cc(F)ccc3OC[C@H]2[C@H]1c1ccccc1 (racemic) [Example 37, (3SR,3aSR)-8-Fluoro-3-phenyl-3a,4-dihydro-3H-chromeno[4,3-c]pyrazole-2-carboxylic acid methyl-(3-piperidin-1-yl-propyl)-amide]	≤ 100 nM
CCN(CCN(C)C)C(=O)N1N=C2c3cc(F)ccc3OC[C@@H]2[C@@H]1c1ccccc1 (racemic) [Example 10, (3RS,3aRS)-8-Fluoro-3-phenyl-3a,4-dihydro-3H-chromeno[4,3-c]pyrazole-2-carboxylic acid (2-dimethylamino-ethyl)-ethyl-amide]	≤ 100 nM
CN(C)C(=O)N1N=C2c3cc(F)ccc3OC[C@@H]2[C@@H]1c1cccc(O)c1 (racemic) [Example 2, (3RS,3aRS)-8-Fluoro-3-(3-hydroxy-phenyl)-3a,4-dihydro-3H-chromeno[4,3-c]pyrazole-2-carboxylic acid dimethylamide]	100 to 1000 nM
CC(C)CNCCCN(C)C(=O)N1N=C2c3cc(F)ccc3OC[C@H]2[C@H]1c1ccccc1 (racemic) [Example 42, (3SR,3aSR)-8-Fluoro-3-phenyl-3a,4-dihydro-3H-chromeno[4,3-c]pyrazole-2-carboxylic acid (3-isobutylamino-propyl)-methyl-amide]	100 to 1000 nM
CN(CCCN)C(=O)N1N=C2c3cc(F)ccc3OC[C@@H]2[C@@H]1c1ccccc1 (racemic) [Example 20, (3RS,3aRS)-8-Fluoro-3-phenyl-3a,4-dihydro-3H-chromeno[4,3-c]pyrazole-2-carboxylic acid (3-amino-propyl)-methyl-amide]	100 to 1000 nM
C=CCNCCCN(C)C(=O)N1N=C2c3cc(F)ccc3OC[C@H]2[C@H]1c1ccccc1 (racemic) [Example 52, (3SR,3aSR)-8-Fluoro-3-phenyl-3a,4-dihydro-3H-chromeno[4,3-c]pyrazole-2-carboxylic acid (3-allylamino-propyl)-methyl-amide]	100 to 1000 nM
CN(CCN)C(=O)N1N=C2c3cc(F)ccc3OC[C@H]2[C@H]1c1ccccc1 (stereo in doubt) [Example 18a, (3SR,3aSR)-8-Fluoro-3-phenyl-3a,4-dihydro-3H-chromeno[4,3-c]pyrazole-2-carboxylic acid (2-amino-ethyl)-methyl-amide]	≤ 100 nM
CN1CCC(N(C)C(=O)N2N=C3c4cc(F)ccc4OC[C@@H]3[C@@H]2c2ccccc2)CC1 (racemic) [Example 9, (3RS,3aRS)-8-Fluoro-3-phenyl-3a,4-dihydro-3H-chromeno[4,3-c]pyrazole-2-carboxylic acid methyl-(1-methyl-piperidin-4-yl)-amide]	≤ 100 nM
CN(CCO)CCN(C)C(=O)N1N=C2c3cc(F)ccc3OC[C@H]2[C@H]1c1ccccc1 (racemic) [Example 49, (3SR,3aSR)-8-Fluoro-3-phenyl-3a,4-dihydro-3H-chromeno[4,3-c]pyrazole-2-carboxylic acid {2-[(2-hydroxy-ethyl)-methyl-amino]-ethyl}-methyl-amide]	≤ 100 nM
CN(CCNC1CCC1)C(=O)N1N=C2c3cc(F)ccc3OC[C@H]2[C@H]1c1ccccc1 (racemic) [Example 44, (3SR,3aSR)-8-Fluoro-3-phenyl-3a,4-dihydro-3H-chromeno[4,3-c]pyrazole-2-carboxylic acid (2-cyclobutylamino-ethyl)-methyl-amide]	≤ 100 nM
C=CCNCCN(C)C(=O)N1N=C2c3cc(F)ccc3OC[C@H]2[C@H]1c1ccccc1 (racemic) [Example 51, (3SR,3aSR)-8-Fluoro-3-phenyl-3a,4-dihydro-3H-chromeno[4,3-c]pyrazole-2-carboxylic acid (2-allylamino-ethyl)-methyl-amide]	100 to 1000 nM
COCCNCCCN(C)C(=O)N1N=C2c3cc(F)ccc3OC[C@H]2[C@H]1c1ccccc1 (racemic) [Example 48, (3SR,3aSR)-8-Fluoro-3-phenyl-3a,4-dihydro-3H-chromeno[4,3-c]pyrazole-2-carboxylic acid [3-(2-methoxy-ethylamino)-propyl]-methyl-amide]	≤ 100 nM
C=CCN(C)CCN(C)C(=O)N1N=C2c3cc(F)ccc3OC[C@H]2[C@H]1c1ccccc1 (racemic) [Example 63, (3SR,3aSR)-8-Fluoro-3-phenyl-3a,4-dihydro-3H-chromeno[4,3-c]pyrazole-2-carboxylic acid [2-(allyl-methyl-amino)-ethyl]-methyl-amide]	100 to 1000 nM
